System: pancreatic xenografts
Settings: NOD/SCID/γc, mouse, in vivo, iv
Excerpt: To quantify intratumoral drug distribution, serial sections of the tumor perpendicular to the PED were imaged by quantitative confocal microscopy. […] Tissue penetration within the tumor was quantified by line scans starting from the entry site for paclitaxel (PED—tumor/device interface; IV—vessels).

CC(=O)O[C@H]1C(=O)[C@@]2(C)[C@H]([C@H](OC(=O)c3ccccc3)[C@]3(O)C[C@H](OC(=O)[C@H](O)[C@@H](NC(=O)c4ccccc4)c4ccccc4)C(C)=C1C3(C)C)[C@]1(OC(C)=O)CO[C@@H]1C[C@@H]2O [paclitaxel]
paclitaxel presence radius around the vessels: ≤ 10 micron
